Data taken from a melting point compilation (Tetko et al.; mined from patent text by program, amines drawn as free bases though some values may be those of a salt).

Structure (SMILES) | melting point [°C]
CC(=O)C(Cl)=NNc1ccccc1 | 132 to 134
CC(C)n1nc(-c2c(NCc3cccnc3)nc(N)nc2-c2ccccc2)ccc1=O | 215 to 216
O=C(Nc1ccc2c(c1)nc1n2CCC1)c1cc2cc(C(F)(F)F)cnc2n1Cc1ccccc1 | 268 to 270
CCc1c(C(C)C)cc(C(C)C)c(C(C)O)c1-c1ccc(F)cc1 (single isomer, unassigned; (+)) | 143 to 145
CCC1=Nc2cc(CO)ccc2C(=O)C1 | 254 to 257
CCN(CC)Cc1nc2sc3c(c2c(-c2ccc(OC)c(OC)c2)c1Cl)CCN(Cc1ccccc1)C3 | 150 to 151
COCOc1ccc2cc(Br)ccc2c1 | 46.8 to 49.2
CC(C)CC(CS)C(=O)NCC(=O)NC(CCCNC(=N)N)C(=O)O (stereo not drawn) | 132 to 146
Cc1c(CCC(=O)c2cn(Cc3ccccc3)c3ccccc23)ncn1C(c1ccccc1)(c1ccccc1)c1ccccc1 | 186 to 188
CNc1nc(-c2cccc(OCc3ccccc3)c2)c2cc(OC)c(OC)cc2n1 | 116 to 118
Cn1c(=O)c(=O)[nH]c2cc(Cl)ccc21 | 342
BrCCOc1ccc2[nH]c3ccccc3c2c1 | 135 to 136
CN1C(=S)N(c2ccc(C#N)c(C(F)(F)F)c2)C(=O)C1(CF)CF | 122 to 123
CCN(C(C)=O)c1cccc(-c2ccnc3c(Cl)cnn23)c1 | 157 to 159
Cc1cc(C)c(C(=O)P(=S)(C(=O)c2c(C)cc(C)cc2C)c2ccccc2)c(C)c1 | 123
Cc1cc(-c2ccc(Cl)c(Cl)c2)nc(-n2cnc(-c3cccc(S(C)(=O)=O)c3)c2)n1 | 213
CC(C)=CCCC(C)=CCCC(C)=CC=CC(C)=CC(N)=O | 63 to 65
COc1ccnc(CS(=O)c2nc3cc4c(cc3[nH]2)OC(F)(F)C(F)(Cl)O4)c1 (stereo not drawn) | 179 to 181
Cc1ccc(S(=O)(=O)OCCCCCCn2c3c(c4ccccc4c2=O)C(=O)c2ccccc2-3)cc1 | 146 to 149
CCOC1=C(N(C(C)=O)C(C)C)C(=O)c2cnn(C)c2C1=O | 154 to 155
CCC(=O)NC[C@@H]1C[C@H]1c1cccc2nn(C)cc12 (relative stereo) | 79 to 80
Cc1cccc(C)c1C(=O)n1cc(F)c(N=CN(C)C)nc1=O | 120 to 150
CNCC(=O)N(C)Cc1ccc(CCn2cnc3cc(-c4ccc(Cl)cc4)sc3c2=O)cc1 | 166 to 169
O=C1NCCN1c1ccc(S(=O)(=O)Nc2ccc3[nH]ccc3c2)cc1 | 239 to 241
CCOCOCCCOn1cnc2c(=O)[nH]c(N)nc21 | 242 to 245

Structure (SMILES) | melting point [°C]
CC(C)(O)Cn1c(CO)nc2c(N)nc3cc(-c4cccc(C(=O)N5CCOCC5)c4)cnc3c21 | 153 to 155
CS(=O)(=O)c1ccc(-c2[nH]c3ccc(Cl)cc3c2-c2cccc(Cl)c2)cc1 | 254 to 257
CNc1cc(Oc2ccc3c(c2)OCCN3)ncn1 | 153
CN1CC(CCCl)Oc2cc(Cl)ccc2C1=S (stereo not drawn) | 105 to 106
CC(=O)Nc1ccc(-c2ccnc3c(C(=O)c4ccccc4)cnn23)cc1 | 229 to 231
O=c1oc(-c2ccccc2)nc2ccc(Br)cc12 | 199 to 201
CNC(=O)Nc1ccc(OCCCN2CCC(C(O)(c3ccc(F)cc3)c3ccc(F)cc3)CC2)cc1 | 177 to 178
CC(C)C[C@H](NC(=O)OC(C)(C)C)C(=O)N[C@H](C(=O)NN)[C@@H](C)O | 146 to 148
CCN(CC)CCOCCC1CCN(C(=O)N2c3ccccc3C(=O)Nc3cccnc32)CC1 | 119 to 120
CC(C)(C)[N+]([O-])=Cc1ccc(OCc2ccccc2)cc1 | 11
COC(=O)c1c(N)ncn1C1c2ccccc2CCC1(C)C (stereo not drawn) | 193 to 195
O=C(c1ccc2c(c1)OCCO2)c1ccc2noc(-c3cccc(Cl)c3)c2c1 | 195
CC(=O)Nc1ccccc1S(=O)(=O)NCCN1[C@H](C)Cc2ccsc2[C@@H]1C (relative stereo) | 104 to 109
COc1ccc(/C=C/C(=O)/C=C/C(=O)O)c(OC)c1OC | 125 to 127
CC(C)(C)c1ccc(N)c([N+](=O)[O-])c1 | 107 to 108
CCOc1nn(-c2ccc(C(F)(F)F)cn2)cc1CCCOc1cccc(OC)c1CCC(=O)O | 110 to 111
COc1ccc2[nH]c(SCc3ncnc(N4CCCCC4)c3C)nc2c1 | 94 to 96
O=C(O)C1=Cc2cc(OC(F)(F)F)ccc2NC1C(F)(F)F (stereo not drawn) | 128 to 129
Cn1ncc2c(c1=O)SCCNC2C(=O)Cc1ccccc1 (stereo not drawn) | 133
CN(C)CCCNC1c2ccccc2C(=O)N1c1ccc2ccc(Cl)nc2n1 (stereo not drawn) | 143
Nc1ccc(OCc2ccc(F)cc2)cc1F | 42 to 43
N#CC1(N)CCc2ccc3ccccc3c2C1 (stereo not drawn) | 75 to 78
CC(O)c1cc(S(N)(=O)=O)ccc1F (stereo not drawn) | 150 to 152
CC1(C)CC(=O)c2ccc(C#Cc3cccnc3)nc2C1 | 108 to 109
COC(=O)c1ccc2c(c1)Sc1ccccc1N=C2 | 104 to 110

Structure (SMILES) | melting point [°C]
CC(=O)NCCOC(=O)C(Oc1ccc(F)c(C(F)(F)F)c1)c1ccc(F)cc1 (stereo not drawn) | 100
COc1cc(CC(=O)O)ccc1CNC(=O)C1Cc2ccccc2N1S(=O)(=O)c1ccc(-c2cccc(C(F)(F)F)c2)cc1 (stereo not drawn) | 99 to 105
Fc1ccc(C(=Cc2ccccc2)C(F)(F)F)cc1 | 43 to 45
COc1ccc2c(=O)c3ccc(O)c(OC)c3oc2c1 | 120 to 121
CCCN(C1=C(O)CC(CCc2ccc(O)cc2)(C2CCCC2)OC1=O)c1ccccc1 (stereo not drawn) | 95
NC(=O)c1ccc2nc(C(=O)NCc3ccnc(OCC4CCOC4)c3)[nH]c(=O)c2c1 (stereo not drawn) | 237 to 239
CC(C)(C)c1cc(CNC(=O)Nc2cccc(C(F)(F)F)c2)nn1-c1ccc(S(C)(=O)=O)cc1 | 162 to 165
O=c1n(Cc2ccc([N+](=O)[O-])cc2)c2ccccc2n1Cc1ccc(C(F)(F)F)cc1 | 134 to 137
O=C(Nc1ccc(C(F)(F)F)cc1)C(=O)N1CCC(Cc2ccc(F)cc2)CC1 | 109 to 111
O=S(=O)(CC1CS1)c1ccc(Oc2ccccc2)cc1 (stereo not drawn) | 99 to 101
OC1CN(Cc2ccccc2)C1 | 64.5 to 65.5
CC(C)Oc1nc(N)nc2c1ncn2CCC(CO)CO | 112 to 114
CCOC(=O)C(=C1SC(=O)N(CC(=O)O)C1=O)c1csc(NC(C)=O)n1 | 288 to 290
CCS(=O)c1cc2c(cc1OC)CCn1c-2cc2c1C(=O)N(C(C)(C)C)CCCC2 (stereo not drawn) | 185 to 187
COC(=O)c1[nH]c2c(C)ccc(C)c2c1C=O | 174 to 175
COc1nc(NN)c2c(OC)c(OC)cc(Cl)c2n1 | 166 to 168
OCCCc1ccc(-c2ccc(CCCO)c(C(F)(F)F)c2)cc1C(F)(F)F | 87.5 to 90
O=C1Nc2c(F)cccc2C12COc1cc3c(cc12)CCO3 (stereo not drawn) | > 250
CC=CCC(O)C(=O)c1ccccc1 (stereo not drawn) | 83 to 85
OCc1ccc(C2=NOC(c3cc(Cl)cc(Cl)c3)(C(F)(F)F)C2)cc1 (stereo not drawn) | 108 to 110
CCCCC(C(=O)N1CCCCC1)c1ccc(C(=O)O)cc1 (stereo not drawn) | 142
CCOC(=O)C1=C(C)NC(C)=C(C(=O)OC)C1c1cccc2ccccc12 (stereo not drawn) | 196 to 197
Cc1ccc(NC(=O)c2cc(Cl)c(O)c(Cl)c2)c(O)c1 | 246 to 247
NC(=O)c1cn(CCBr)nc1[N+](=O)[O-] | 135 to 137
Cc1cccc(-n2ncc(C)c2-c2cc3cnccc3s2)n1 | 155 to 156

Structure (SMILES) | melting point [°C]
CCOC(=O)c1cc2n(c1)CN(C(=O)OCC)c1c(OC)cccc1-2 | 172 to 174
COc1cccc(CCOc2cccc(-c3cccc(C(=O)NCCNC(=O)OC(C)(C)C)c3)n2)c1 | 128 to 129
O=C(NN=Cc1cccc(C(F)(F)F)c1Cl)c1ccc(O)cc1 | 262
Nc1ccc(-c2ccncc2)cc1 | 232 to 234
COC(=O)C(Oc1cc(OCc2ccsc2)ccc1C#N)c1ccccc1F (racemic) | 104 to 106
CC(C)NC(=O)Nc1nc(Cc2c(Cl)cccc2Cl)nc(Nc2ccc(C#N)cc2)n1 | 267 to 268
COc1ccc2ccccc2c1C(=O)/C=C/c1ncn(C(c2ccccc2)(c2ccccc2)c2ccccc2)c1C | 220 to 222
N#Cc1cnc2c(c1Nc1ccc(Cl)cc1Br)C=C1N=CN=C1C2 | 244 to 246
O=[N+]([O-])c1ccc(S(=O)(=O)Nc2cccc(F)c2)c([N+](=O)[O-])c1 | 172 to 173
Cc1noc(CCCCCCCOc2ccc(C3=NCCO3)cc2)c1CN1CCCC1 | 98 to 99
OC(c1ccccc1)(c1ccncc1)c1ccc(F)cc1 (stereo not drawn) | 189 to 192
CCOC(=O)c1ccc(-c2coc(-c3ccc(C(F)(F)F)cc3)n2)cc1 | 168 to 170
Cc1ncoc1C(C)(O)c1ccccc1C(F)(F)F (stereo not drawn) | 108 to 109
COc1cc(Nc2nccc(-c3ccc(N(C)CCN(C)C)nc3)n2)cc(OC)c1OC | 97 to 98
CCCN(C1=C(O)C[C@@](CCc2cccc(O)c2)(C2CCCC2)OC1=O)c1ccccc1 | 74 to 76
Cc1c(CCO)c2cc(OCc3csc(-c4ccccc4)n3)ccc2n1Cc1ccccc1 | 114 to 116
CC(C)C[C@H](NC(=O)CCS(=O)(=O)c1ccccc1)C(=O)N[C@@H](C(C)C)[C@@H](O)c1c(-c2ccccc2)c1=O | 100 to 106
c1cnc(N2CCN(Cc3n[nH]c4ccccc34)CC2)nc1 | 129 to 130
O=c1c(C2=Nc3ccccc3S(=O)(=O)N2)c(O)c2ccccc2n1CC1CCCCC1 | 232 to 235
O=C1c2c(Cl)cccc2-n2cnc(C#Cc3cccc(Cl)c3)c2[C@@H]2CCCN12 | 207 to 209
CCCCc1ccc(C(=O)Oc2ccc(C#N)c(F)c2)nc1 | 45.1 to 46.1
COc1cc(C)cc(OC)c1NC1C2CC3CC(C2)CC1C3 (stereo not drawn) | 100
COC(=O)c1cc(NC(C)=O)ccc1OC | 132 to 134
